Measured values taken from patent US5565336A, “Carboxy terminal IL-6 muteins” (University of North Carolina at Chapel Hill, priority 1994, dated 1996).

Experiments:
[1] = tested on: IL-6 receptor; test: binding competition assay / Scatchard analysis with 125I-IL-6 on human myeloma cell line U-266; conditions: Kd wild-type IL-6 divided by Kd mutein; result in words
Experimental: The affinity may be determined with a Scatchard analysis and quantitated as a dissociation constant, Kd.
Binding competition assays are performed using human recombinant IL-6 derived from Escherichia coli (Genetics Institute, Cambridge, Mass.). IL-6 is radioiodinated using the Bolton-Hunter reagent (New England Nuclear, Wilmington, Del.) as described by Faltynek, C. […] The specific activity of the radiolabelled IL-6 is 22 μC/μg. […] This medium is also used for making the dilutions of the IL-6 muteins and as the binding medium. The fetal bovine serum batches are routinely tested for IL-6 activity and only batches that show negligible IL-6 activity are used for competition binding assays. […]
Binding is performed by sealing the plates with acetate plate sealers (ICN Biomedicals, Costa Mesa, Calif.) and end-over rotation for 3 hours at 4° C. […] The cell pellets are washed once with 200 μl of ice-cold Ca^++ /Mg^+ free Hank's balanced salt solution (HBSS), resuspended in 200 μl of HBSS, transferred to scintillation vials and counted in a gamma counter.
The results of the Scatchard and competition binding assays are analyzed using a non-linear curve fitting program LIGAND. […] An apparent IC50 is calculated using the EBDA/LIGAND program.

[2] = tested on: human hepatoma cell line HEP3B2; test: hepatocyte stimulation (fibrinogen induction) assay using human hepatoma cell line HEP3B2; assay type: cell-based; conditions: in vitro activity on a human hepatoma cell line; result in words
Source text: The biological activity of wild-type IL-6 and IL-6 muteins can be measured by standard assays for measuring IL-6 activity, as is known in the art. For example, the in vitro biological activity of the IL-6 muteins of the invention may be compared with native IL-6 in a fibrinogen induction assay using a human hepatoma cell line, HEP3B2. When determined in such an assay and expressed as a percentage of activity of native, wild-type, IL-6, the activity of which is defined as 100%, the biological activity of the muteins of the present invention is at least 125%, preferably at least 150%. (See Example 3 and FIG. 6)
The hepatocyte stimulation assay using human hepatoma cell line HEP3B2 is carried out in duplicate serial dilutions of three or more independent preparations of each IL-6 mutein. The biological activity is determined from dose response curves prepared for each protein preparation. To minimize variation, a duplicate protein preparation of wild-type IL-6 is used in each 96-well tissue culture plate to calculate the activity of two (HEP3B2) IL-6 muteins on the same plate as a percentage of wild-type IL-6 activity. (See FIG. 6)
Cells from the human hepatoma cell line HEP3B2 are maintained in DMEM-H medium supplemented with 10% fetal bovine serum and penicillin/streptomycin. […] The OD405 is determined on a Vmax ELISA plate reader (Molecular Devices Corp., Palo Alto, Calif.). […]

## IL-6 mutein with Phenylalanine at position 171 of the native sequence (Phe^171) replaced by Leucine (Leu): mutein of human IL-6 with substitution of Phenylalanine by Leucine at position 171; SEQ. ID. NOS. 3 and 4
[1]
  receptor binding capacity compared to wild-type IL-6: increased receptor binding capacity
[2]
  biological activity compared to wild-type IL-6: higher biological activity
